Counter-ions that a name gives are not always drawn.
Assays:
Format in all cases: biochemical
[1] = molecular target: T1, dopamine (DA) uptake (Rattus norvegicus, UniProt P23977); experiment: Inhibition of 3H-dopamine uptake in rat striatal synaptosomes; settings: head says whole brain synaptosomes, method uses striatal synaptosomes, 3H-DA 50 nM
T1 construct: Corpora striata are rapidly removed, weighed and homogenized in 9 volumes of ice-cold 0.32 M sucrose; from tissue; host or cells: rat corpora striata, crude synaptosomal supernatant (S1)
Procedure: Inhibition of ^3H-Dopamine Uptake in Rat Striatal Synaptosomes
this assay is used to show differential drug effects on dopamine uptake versus nerepppinephrine uptake and to identify therapeutic agents for diseases where the potentiation of dopaminergic activity may be helpful (e.g. Parkinson's Disease).
(§1) A. Animals: Male CR Wistar rats (100-125 g).
1. Krebs-Henseleit Bicarbonate Buffer, pH 7.4 (KHBB): Make a 1 liter batch containing the following salts:
Aerate for 60 minutes with 95% O2/5% CO2, check pH (7.4±0.1). 2. 0.32 M Sucrose: 21.9 g of sucrose, bring to 200 ml. 3. Dopamine HCl is obtained from Sigma Chemical Co. A 0.1 mM stock solution is made up in 0.01N HCI. This is used to dilute the specific activity of radiolabeled 5 HT. 4. 3,4-[8-^3H(N)]-Dihydroxyphenylethylamine (Dopamine), specific activity 4-34 Ci/mmol is obtained from New England Nuclear. The final desired concentration of ^3H-DA in the assay is 50 nM. The dilution factor is 0.9. Therefore, the KHBB is made up to contain 55.5 nM [^3H]-5 DA. Add to 100 ml of KHBB.
(§2) 5. For most assays, a 1mM stock solution of the test compound is made up in a suitable solvent and serially diluted such that the final concentration in the assay ranges from 2 x 10^-8 to 2 x 10^-5 M. Seven concentrations are used for each assay. Higher or lower concentrations may be used depending on the potency of the compound.
(§3) Male Wistar rats are decapitated and the brain rapidly removed. Corpora striata are rapidly removed, weighed and homogenized in 9 volumes of ice-cold 0.32 M sucrose using a Potter-Elvejhem homogenizer. Homogenization should be done with 4-5 up and down strokes at medium speeds to minimize synaptosome lysis. The homogenate is centrifuged at 1000 g for 10 minutes at 0°- 4°C. The supernatant (S1) is decanted and is used for uptake experiments.
• 900 µl KHBB + [^3H]-DA. • 20 µl Vehicle or appropriate drug concentration • 100 µl Tissue suspension
(§4) Tubes are incubated at 37°C under a 95% O2/5% CO2 atmosphere for 5 minutes. For each assay, 3 tubes are incubated with 20 µl of vehicle at 0°C in an ice bath. After incubation all tubes are immediately centrifuged at 4000 g for 10 minutes. The supernatant fluid is aspirated and the pellets dissolved by adding 1 ml of solubilizer (Triton® X-100 + 50% EtOH, 1:4 v/v). The tubes are vigorously shaken, decanted into scintillation vials, and counted in 10 ml of Liquiscint® scintillation counting cocktail. Active uptake is the difference between cpm at 37°C and 0°C. The percent inhibition at each drug concentration is the mean of three determinations. IC50 values are derived from log-probit analysis.

[2] = molecular target: T2, norepinephrine (NE) uptake (Rattus norvegicus, UniProt Q63380); experiment: Inhibition of [3H]-norepinephrine uptake in rat whole brain or hypothalamic synaptosomes; settings: [3H]-NE 50 nM
T2 construct: Either whole brain minus cerebella or hypothalamus is weighed and homogenized in 9 volumes of ice-cold 0.32 M sucrose; from tissue; host or cells: rat whole brain minus cerebella or hypothalamus, crude synaptosomal supernatant (S1)
Procedure: Inhibition of [^3H]-Norepinephrine Uptake in Rat Whole Brain or Hypothalamic Synaptosomes
This assay is used as a biochemical screen for potential antidepressants which block norepinephrine uptake.
as §1
(§5) 1. Krebs-Henseleit Bicarbonate Buffer, pH 7.4 (KHBB): Make a 1 liter batch, containing the following salts.
Aerate for 60 minutes with 95% O2/5% CO2, check pH (7.4±0.1); then add bovine serum albumin (Sigma cat#A-7906) 1 mg/ml. 2. 0.32M Sucrose: 21.9 g of sucrose, bring to 200 ml. 3. L(-)-Norepinephrine bitartrate is obtained from Sigma Chemical Co. A 0.1 mM stock solution is made up in 0.01 N HCl. This is used to dilute the specific activity of theradiolabeled NE. 4. Levo-[Ring-2,5,6-^3H]-Norepinephrine (40-50 Ci/mmol) is obtained from New England Nuclear. The final desired concentration of [^3H]-NE in the assay is 50 nM. The dilution factor is 0.8. Therefore, the KHBB is made up to contain 62.5 nM [^3H]-NE. Add to 100 ml of KHBB.
as §2, with “1 mM” for “1mM”
as §3, with “removed. Either whole brain minus cerebella or hypothalamus is” for “removed. Corpora striata are rapidly removed,”, “lysis. TH” for “lysis. The”, “at 0°” for “at 0°-”
• 800 µl KHBB [^3H]-NE • 20 µl Vehicle or appropriate drug concentration • 200 µl Tissue suspension
Tubes are incubated at 37°C, under a 95% O2/5% CO2 atmosphere for 5 minutes. For each assay, 3 tubes are incubated with 20 µl of vehicle at 0°C in a ice bath. After incubation all tubes are immediately centrifuged at 4000 g for 10 minutes. The supernatant fluid is aspirated and the pellets dissolved by adding 1 ml of solubilizaer (Triton® X-100 + 50% EtOH, 1:4 v/v). The tubes are vigorously shaken decanted into scientillation vials, and counted in 10 ml of Liquiscint® scintillation countering cocktail. Active uptake is the difference between cpm at 37°C. and 0°C. The percent inhibition at each drug concentration is the mean of three determinations IC50 values are derived from log-probit analysis.

[3] = molecular target: T3, serotonin (5HT) uptake (Rattus norvegicus, UniProt P31652); experiment: Inhibition of [3H]-serotonin uptake in rat whole brain synaptosomes; settings: [3H]-5 HT 50 nM
T3 construct: Whole brain minus cerebella is weighed and homogenized in 9 volumes of ice-cold 0.32 M sucrose; from tissue; host or cells: rat whole brain minus cerebella, crude synaptosomal supernatant (S1)
Procedure: Inhibition of [^3H]-Serotonin Uptake in Rat Whole Brain Synaptosomes
This assay is used a biochemical screen for compounds which block serotonin (5 HT) uptake, which may be useful as antidepressants and for the treatment of personality disorders such as obsessive compulsive disorder.
as §1, §5
Aerate for 60 minutes with 95% O2/5% CO2, check pH (7.4±0.1). 2. 0.32 M Sucrose: 21.9 g of sucrose, bring to 200 ml. 3. Serotonin creatinine SO4 is obtained from Sigma Chemical Co. A 0.1 mM stock solution is made up in 0.01N HCl. This is used to dilute the specific activity of radiolabeled 5 HT. 4. 5-[1,2-^3H(N)]-Hydroxytryptamine creatinine sulfate (Serotonin), specific activity 20-30 Ci/mmol is obtained from New England Nuclear. The final desired concentration of ^3H-5 HT in the assay is 50 nM. The dilution factor is 0.8. Therefore, the KHBB is made up to contain 62.5 nM [^3H]--5 HT. Add to 100 ml of KHBB.
as §2, with “1 mM” for “1mM stock”, “in” for “in a”
as §3, with “Whole brain minus cerebella is” for “Corpora striata are rapidly removed,”, “0° -” for “0°-”
• 800 µl KHBB + [^3H]-5 HT. • 20 µl Vehicle or appropriate drug concentration • 200 µl Tissue suspension
as §4, with “Liquicint®” for “Liquiscint®”

T2 sequence (Q63380 1-617): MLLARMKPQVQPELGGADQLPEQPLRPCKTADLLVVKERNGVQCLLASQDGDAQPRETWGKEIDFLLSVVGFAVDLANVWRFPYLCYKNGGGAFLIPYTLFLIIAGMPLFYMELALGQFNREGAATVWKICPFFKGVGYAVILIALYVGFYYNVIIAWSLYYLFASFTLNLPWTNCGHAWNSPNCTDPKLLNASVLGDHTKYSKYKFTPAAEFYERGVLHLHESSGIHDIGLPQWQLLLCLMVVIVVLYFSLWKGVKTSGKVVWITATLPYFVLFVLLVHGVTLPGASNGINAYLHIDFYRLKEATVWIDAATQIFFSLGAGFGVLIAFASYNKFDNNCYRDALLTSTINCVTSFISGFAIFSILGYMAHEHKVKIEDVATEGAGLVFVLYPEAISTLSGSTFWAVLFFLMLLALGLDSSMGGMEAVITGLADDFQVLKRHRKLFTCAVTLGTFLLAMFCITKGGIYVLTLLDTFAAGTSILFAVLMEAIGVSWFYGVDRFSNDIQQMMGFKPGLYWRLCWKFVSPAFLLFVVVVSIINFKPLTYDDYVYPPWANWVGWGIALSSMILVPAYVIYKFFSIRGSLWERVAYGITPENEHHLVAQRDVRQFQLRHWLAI
T1 sequence (P23977 whole entry): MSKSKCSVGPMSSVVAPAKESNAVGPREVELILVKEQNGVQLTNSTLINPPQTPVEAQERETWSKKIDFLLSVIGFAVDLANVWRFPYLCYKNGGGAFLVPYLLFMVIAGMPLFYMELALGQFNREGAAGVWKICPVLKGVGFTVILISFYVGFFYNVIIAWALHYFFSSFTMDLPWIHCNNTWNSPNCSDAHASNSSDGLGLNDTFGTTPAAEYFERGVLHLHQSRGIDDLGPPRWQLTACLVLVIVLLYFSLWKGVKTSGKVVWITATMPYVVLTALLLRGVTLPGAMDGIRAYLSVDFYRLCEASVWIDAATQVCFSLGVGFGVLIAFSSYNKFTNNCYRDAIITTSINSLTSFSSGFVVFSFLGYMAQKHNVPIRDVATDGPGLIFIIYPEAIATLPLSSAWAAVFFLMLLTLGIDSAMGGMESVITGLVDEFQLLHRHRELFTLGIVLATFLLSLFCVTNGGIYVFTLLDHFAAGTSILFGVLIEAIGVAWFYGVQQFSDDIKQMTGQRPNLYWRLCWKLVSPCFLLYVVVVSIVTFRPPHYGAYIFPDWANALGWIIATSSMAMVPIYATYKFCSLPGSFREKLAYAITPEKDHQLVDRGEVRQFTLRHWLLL
T3 sequence (P31652 whole entry): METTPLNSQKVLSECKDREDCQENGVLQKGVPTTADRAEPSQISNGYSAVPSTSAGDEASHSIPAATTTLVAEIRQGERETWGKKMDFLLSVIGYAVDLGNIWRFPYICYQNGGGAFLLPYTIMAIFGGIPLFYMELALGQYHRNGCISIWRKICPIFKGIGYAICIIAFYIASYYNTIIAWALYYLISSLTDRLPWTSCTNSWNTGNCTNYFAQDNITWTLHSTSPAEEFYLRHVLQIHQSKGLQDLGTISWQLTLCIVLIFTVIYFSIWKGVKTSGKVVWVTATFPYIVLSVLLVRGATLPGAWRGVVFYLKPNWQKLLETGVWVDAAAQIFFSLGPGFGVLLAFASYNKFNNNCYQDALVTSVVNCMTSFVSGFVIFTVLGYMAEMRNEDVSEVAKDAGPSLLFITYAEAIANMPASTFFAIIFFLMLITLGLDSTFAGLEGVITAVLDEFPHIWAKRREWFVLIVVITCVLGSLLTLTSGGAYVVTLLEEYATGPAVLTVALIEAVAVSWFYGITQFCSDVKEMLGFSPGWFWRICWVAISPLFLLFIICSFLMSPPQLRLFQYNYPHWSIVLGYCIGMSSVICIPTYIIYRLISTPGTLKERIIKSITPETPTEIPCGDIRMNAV

Row | Compound | Whole brain synaptosomes % inhibition at 3.16 µm DA [1] [%] | Whole brain synaptosomes % inhibition at 3.16 µm NE [2] [%] | Whole brain synaptosomes % inhibition at 3.16 µm 5HT [3] [%]
1 | Cl.O=S1(=O)c2ccccc2C(c2ccc(F)cc2)N1C1CCNCC1 (stereo not drawn) [3-(4-Fluorophenyl)-2-(4-piperidinyl)-2,3-dihydrobenzo[d]isothiazole-1,1-dioxide hydrochloride] | 30.34 | 25.02 | 37.92
2 | COc1cc(C(C)=O)ccc1OCCCN1CCC(N2C(c3ccc(Cl)cc3)c3ccccc3S2(=O)=O)CC1 (stereo not drawn) [1-[4-(3-{4-[3-(4-Chlorophenyl)-1,1-dioxo-3H-benzo[d]isothiazol-2-yl]-1-piperidin-1-yl}-propoxy)-3-methoxyphenyl]-ethanone maleate] | 67.94 | 55.23 | 48.78
3 | O=C(O)/C=C\C(=O)O.O=C1c2ccccc2C(=O)N1CCCN1CCC(N2C(c3ccc(Cl)cc3)c3ccccc3S2(=O)=O)CC1 (stereo not drawn) [2-(3-{4-[3-(4-Chlorophenyl)-1,1-dioxo-3H-benzo[d]isothiazol-2-yl]piperidin-1-yl}propyl)-isoindol-1,3-dione maleate] | 57.36 | 28.37 | 29.02
4 | O=C(O)/C=C\C(=O)O.O=S1(=O)c2ccccc2C(c2ccc(Cl)cc2)N1C1CCN(CCO)CC1 (stereo not drawn) [2-{4-[3-(4-Chlorophenyl)-1,1-dioxo-3H-benzo[d]isothiazol-2-yl]-piperidin-1-yl}-ethanol maleate] | 18.71 | 8.71 | 3.68

Source: patent EP0956287B1, “3-ARYL-2-(1-SUBSTITUTED-4-PIPERIDINYL)-1(1-DI)OXO-3H-BENZO D]-ISOTHIAZOLE DERIVATIVES, THEIR PREPARATION AND THEIR USE AS MODULATORS OF NEUROTRANSMITTER FUNCTION” (Aventis Pharmaceuticals Inc., priority 1996, dated 1998)
